This note sets out measurements from ChEMBL document CHEMBL5634123, “Design and synthesis of 1H-benzo[d]imidazole selective HDAC6 inhibitors with potential therapy for multiple myeloma” (Eur J Med Chem, 2023).

Series [1] in a line: Toxicity in Balb/c nude mouse xenografted with human RPMI-8226 cells assessed as adverse effect on spleen at 10 to 40 mg/kg, po qd for 21 days administered consecutively by H and E staining based analysis. Format: organism-based. Conditions: in vivo, 504 h, dose 10-40 mg/kg, time 21 day. (Xenograft models place foreign cells or tissue in a host animal.)
The subject of series [2] is RPMI-8226. The series can be described thus: Induction of cell cycle arrest at S phase in human RPMI-8226 cells at 0.5 uM incubated for 24 hrs by PI staining based flow cytometry (reference value: 58.5 %). The series is classed as functional. A general note: A flow cytometer gives signals particle by particle.
Series [3] deals with RPMI-8226. The series can be described thus: Induction of apoptosis in human RPMI-8226 cells assessed as necrotic cells at 0.1 uM incubated for 24 hrs by Annexin V-FITC/PI staining based flow cytometry (reference value: 0.90 %). The series is classed as functional.
Series [4] can be described thus: Toxicity in Balb/c nude mouse xenografted with human RPMI-8226 cells assessed as adverse effect on serum total protein level at 10 to 40 mg/kg, po qd for 21 days administered consecutively. The series is classed as organism-based. The following applies: in vivo, 504 h, dose 10-40 mg/kg, time 21 day.
The nature of series [5]: AUC (0 to t) in mouse at 1 mg/kg, iv. Format: ADME, organism-based. The following applies: in vivo.
The nature of series [6]: Toxicity in Balb/c nude mouse xenografted with human RPMI-8226 cells assessed as adverse effect on serum AST level at 10 to 40 mg/kg, po qd for 21 days administered consecutively. Format: organism-based. Conditions: in vivo, 504 h, dose 10-40 mg/kg, time 21 day.
Series [7] has as its system RPMI-8226. The series can be described thus: Induction of apoptosis in human RPMI-8226 cells assessed as viable cells at 2.5 uM incubated for 24 hrs by Annexin V-FITC/PI staining based flow cytometry (reference value: 90.98 %). The following applies: read-out: Activity. The series is classed as functional.
The nature of series [8]: Toxicity in Balb/c nude mouse xenografted with human RPMI-8226 cells assessed as adverse effect on serum ALT level at 10 to 40 mg/kg, po qd for 21 days administered consecutively. Format: organism-based. Conditions: in vivo, 504 h, dose 10-40 mg/kg, time 21 day.
Series [9] is described as follows: Cmax in mouse at 10 mg/kg, po. Format: ADME, organism-based. The following applies: in vivo.
In series [10] the test system is RPMI-8226. Nature of the series: Induction of apoptosis in human RPMI-8226 cells assessed as necrotic cells at 0.5 uM incubated for 24 hrs by Annexin V-FITC/PI staining based flow cytometry (reference value: 0.90 %). The series is classed as functional.
For series [11], the system named is RPMI-8226. Nature of the series: Antitumor activity against human RPMI-8226 cells xenografted in Balb/c nude mouse assessed as reduction in tumor volume at 10 to 40 mg/kg, po qd for 21 days administered consecutively. Format: functional, organism-based. Conditions: dose 10-40 mg/kg, time 21.0 day.
Series [12] concerns RPMI-8226. Nature of the series: Induction of apoptosis in human RPMI-8226 cells assessed as increase in Bax expression at 0.1 to 2.5 uM incubated for 24 hrs by Western blot analysis. Format: functional, cell-based. The following applies: dose 0.1-2.5 µM.
Series [13] has as its target T1, Protein deacetylase HDAC6 (Homo sapiens) (UniProt Q9UBN7).
T1 sequence (whole entry): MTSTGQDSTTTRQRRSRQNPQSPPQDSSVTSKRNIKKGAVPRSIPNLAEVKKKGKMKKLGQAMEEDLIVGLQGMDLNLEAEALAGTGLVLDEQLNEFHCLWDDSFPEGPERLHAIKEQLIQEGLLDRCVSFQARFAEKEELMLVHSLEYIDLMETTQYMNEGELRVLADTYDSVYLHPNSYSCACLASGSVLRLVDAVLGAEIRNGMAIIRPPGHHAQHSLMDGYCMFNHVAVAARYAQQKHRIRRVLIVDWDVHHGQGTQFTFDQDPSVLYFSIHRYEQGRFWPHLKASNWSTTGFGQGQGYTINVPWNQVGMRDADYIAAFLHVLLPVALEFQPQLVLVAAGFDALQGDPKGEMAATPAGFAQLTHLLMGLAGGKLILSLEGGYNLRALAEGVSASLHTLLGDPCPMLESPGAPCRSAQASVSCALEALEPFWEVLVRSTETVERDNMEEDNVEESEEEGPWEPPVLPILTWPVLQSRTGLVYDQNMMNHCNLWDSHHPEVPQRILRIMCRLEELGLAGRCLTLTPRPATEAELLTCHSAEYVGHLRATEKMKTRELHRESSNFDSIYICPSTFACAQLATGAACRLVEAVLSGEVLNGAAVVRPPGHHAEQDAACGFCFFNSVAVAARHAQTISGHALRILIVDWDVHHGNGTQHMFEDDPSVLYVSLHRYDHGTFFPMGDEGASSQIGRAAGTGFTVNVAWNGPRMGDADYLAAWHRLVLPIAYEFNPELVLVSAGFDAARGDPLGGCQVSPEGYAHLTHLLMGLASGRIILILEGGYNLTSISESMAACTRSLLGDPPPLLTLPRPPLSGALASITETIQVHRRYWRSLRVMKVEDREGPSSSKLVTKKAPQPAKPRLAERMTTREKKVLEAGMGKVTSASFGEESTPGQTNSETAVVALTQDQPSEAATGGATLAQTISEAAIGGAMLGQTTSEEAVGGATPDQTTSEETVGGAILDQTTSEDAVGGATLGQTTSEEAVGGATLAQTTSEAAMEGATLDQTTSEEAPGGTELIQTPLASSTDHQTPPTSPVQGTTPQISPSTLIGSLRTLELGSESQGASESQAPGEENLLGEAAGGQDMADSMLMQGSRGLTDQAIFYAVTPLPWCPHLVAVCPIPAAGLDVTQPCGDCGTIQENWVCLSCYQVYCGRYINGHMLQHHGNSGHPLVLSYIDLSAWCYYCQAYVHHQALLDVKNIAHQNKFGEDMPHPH
The series can be described thus: Inhibition of HDAC6 in human RPMI-8226 cells assessed as increase in Ac-alpha-tubulin expression at 0.5 to 2.5 uM incubated for 24 hrs by Western blot analysis. Format: cell-based. Conditions: dose 0.5-2.5 µM. (A western blot detects proteins with antibodies after separation by electrophoresis.)

The subject of series [14] is RPMI-8226. Nature of the series: Induction of apoptosis in human RPMI-8226 cells assessed as decrease in […] expression at 0.1 to 2.5 uM incubated for 24 hrs by Western blot analysis. The following applies: dose 0.1-2.5 µM. Format: functional, cell-based.
The subject of series [15] is RPMI-8226. The series can be described thus: cells. Conditions: Homo sapiens, RPMI-8226, 24 h.
The target of another series is Histone deacetylase 3 (Homo sapiens, UniProt O15379). Nature of the series: Inhibition of HDAC3 (unknown origin) preincubated for 10 mins followed by substrate addition by fluorescence based assay.
Histone deacetylase 3, sequence (O15379 whole entry): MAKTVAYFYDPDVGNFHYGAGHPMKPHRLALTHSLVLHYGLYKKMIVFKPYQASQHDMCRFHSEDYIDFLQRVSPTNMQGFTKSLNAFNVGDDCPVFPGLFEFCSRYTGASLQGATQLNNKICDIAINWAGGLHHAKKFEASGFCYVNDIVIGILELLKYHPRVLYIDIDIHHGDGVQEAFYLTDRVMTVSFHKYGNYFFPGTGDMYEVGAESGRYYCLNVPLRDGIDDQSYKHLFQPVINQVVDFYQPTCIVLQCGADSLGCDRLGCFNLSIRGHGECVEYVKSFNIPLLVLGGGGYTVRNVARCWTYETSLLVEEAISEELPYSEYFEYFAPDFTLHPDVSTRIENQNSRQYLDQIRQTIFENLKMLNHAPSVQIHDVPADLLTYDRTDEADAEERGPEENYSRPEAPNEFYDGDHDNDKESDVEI
For series [16], the system named is RPMI-8226. Nature of the series: Induction of cell cycle arrest at G2 phase in human RPMI-8226 cells at 0.1 uM incubated for 24 hrs by PI staining based flow cytometry (reference value: 18.3 %). Format: functional.
The test system of series [17] is RPMI-8226. Nature of the series: Induction of apoptosis in human RPMI-8226 cells assessed as viable cells at 0.1 uM incubated for 24 hrs by Annexin V-FITC/PI staining based flow cytometry (reference value: 90.98 %). Format: functional. Conditions: read-out: Activity.
The nature of series [18]: Toxicity in Balb/c nude mouse xenografted with human RPMI-8226 cells assessed as adverse effect on heart at 10 to 40 mg/kg, po qd for 21 days administered consecutively by H and E staining based analysis. The series is classed as organism-based. The following applies: in vivo, 504 h, dose 10-40 mg/kg, time 21 day.
The target in series [19] is T1, Protein deacetylase HDAC6 (Homo sapiens). The series can be described thus: Inhibition of HDAC6 in human RPMI-8226 cells assessed as increase in Ac-H3 expression at 2.5 uM incubated for 24 hrs by Western blot analysis. Format: cell-based.
Series [20] in a line: Half life in mouse at 1 mg/kg, iv. The series is classed as ADME, organism-based. Conditions: in vivo.
Another series has as its system HCT-116. Nature of the series: Cytotoxicity against human HCT-116 cells assessed as inhibition of cell viability incubated for 24 hrs by CCK8 assay. The series is classed as functional, cell-based. Conditions: HCT-116, 24 h.

In general, AUC(0-t) refers to the area under the concentration-time curve up to a stated or last time point. The Cmax is the maximum level reached in the sampled fluid or tissue. A word on the IC50: it is the concentration that gives 50% inhibition. A word on the half-life: it is how long it takes for the measured level to halve. A high value points to slow loss.

The structures appear in SMILES notation. Activity calls are given as the source filed them. The calls are words filed in the database; no cut-off is given here.

Consider `Cn1c([C@@H](Cc2ccccc2)NCc2ccccc2)nc2cc(C(=O)NO)ccc21`, for which the Activity entry is “Non-Toxic” in series [1]; 43.3% with RPMI-8226 [2]; 0.45% in the series on RPMI-8226 [3]; “Non-Toxic” in series [4]; “Non-Toxic” in series [6]; “Non-Toxic” in [8]. In addition, the Activity is reported as 0.53% in the series on RPMI-8226 [10], 21.1% in the series with RPMI-8226 [16] and “Non-Toxic” in [18]. This compound showed an AUC(0-t) in series [5] of 202 ng·h/mL. Besides, the viability at 2.5 µM in the series on RPMI-8226 [7] was 76.5%. Besides, in [9], the Cmax turned out to be 177 ng/mL. For the same compound, the outcome in the series with RPMI-8226 [11], in the series on RPMI-8226 [12] and in the series on RPMI-8226 [14] was Active. In addition, the inhibition entry in [13] and in series [19] was “Active” each time. The figures for the half-inhibitory concentration (IC50) with RPMI-8226 [15], against Histone deacetylase 3 and with HCT-116 were 528 nM, 1840 nM and 15200 nM, respectively. In addition, the viability at 0.1 µM with RPMI-8226 [17] is 82.5%. In [20], the half-life is 41.9 min.
